Experiments:
[1] = test system: Human RSV-A (“Long” strain); assay: RSV-A assay (CPE, ATPlite readout in Hep-2 cells); format: cell-based; conditions: human respiratory syncytial virus, 120 h; Hep-2 cells, MOI 0.1, 5-day incubation, ATPlite; read-out: Human RSV-A (“Long” strain) EC50
From the text: Hep-2 cells, (originally derived from tumors grown in irradiated-cortisonised weanling rats that had been injected with epidermoid carcinoma tissue from a person's larynx, but later found to be indistinguishable from HeLa cells by PCR DNA analysis), were used for the culturing of genotype A, “Long” strain RSV. Flasks were inoculated with RSV and viral stocks were collected once cytopathic effect (CPE) was greater than 90%. Viral stocks in 25% sucrose media were snap frozen using liquid nitrogen to increase viral stability. Viral stock titers were quantified by tissue culture infectious dose 50% (TCID50) using 8,000 cells per well and 3-fold viral dilutions across a 96-well plate, cultured for 4 days. Viral stock titers were also quantified by a plaque forming unit assay, as described elsewhere.
Following extensive parameter testing, the final assay is run as follows: Hep-2 cells are seeded into the inner 60 wells of a 96-well plate at 8,000 cells per well in a volume of 50 μL using Growth Media (DMEM without phenol red, 1% L-Glut, 1% Penn/Strep, 1% nonessential amino acids, 10% heat-inactivated FBS). 2-fold serial dilutions of control and test compounds are added to the wells in duplicate in a total volume of 25 μL. Viral stock is then added to the wells at a multiplicity of infection (MOI) of 0.1 in a volume of 25 μL, bringing the total volume of each well to 100 μL. The MOI is calculated using the PFU/mL, or TCID50 if unavailable. Each 96-well plate has a control column of 6 wells with cells and virus but no compound (negative control, max CPE), a column with cells but no compound or virus (positive control, minimum CPE), and a column with no cells or virus or compound (background plate/reagent control). The control wells with cells but no virus are given an additional 25 μL of growth media containing an equal quantity of sucrose as those wells receiving the viral stock in order to keep consistent in media and volume conditions. The outer wells of the plate are filled with 125 μL of moat media (DMEM, 1% Penn/Strep) to act as a thermal and evaporative moat around the test wells. Following a 5-day incubation period, the plates are read using ATPlite (50 uL added per well), which quantifies the amount of ATP (a measure of cell health) present in each well. Assay plates are read using the Envision luminometer. […] EC50 ranges are as follows: A<0.2 μM; B≥0.2 μM.

[2] = test system: rHMPV-GFP (recombinant HMPV CAN97-83, MPV-GFP1); assay: HMPV antiviral assay (eGFP fluorescence in Vero E6 cells); format: cell-based; conditions: human metapneumovirus, Vero C1008, 120 h, read-out: rHMPV-GFP EC50
Description: Method for HMPV Antiviral Assay
HMPV antiviral activity was evaluated using a recombinant version of HMPV CAN97-83 engineered to contain the coding sequence for enhanced green fluorescence protein (eGFP) in the 3′ end of the virus genome (MPV-GFP1, ViraTree). Vero E6 cells (ATCC #CCL-7) were seeded at a density of 12,000 cells/100 μL/well into 96-well cell plates (VENDOR) one day prior to the assay. On the day of screening, the cell culture medium was aspirated from the wells and cells were washed twice with serum-free Eagle's Modified Essential Medium (EMEM, ATCC #) containing 1% penicillin-streptomycin (Invitrogen) (SF-EMEM). Cell washes were performed by dispensing 100 μL SF-EMEM per well and immediately aspirating the wash medium from the well. Following the second wash step, serum-free OptiMEM (Invitrogen, Cat No.) (SF-OptiMEM) containing 0.5 μg/mL TPCK-Trypsin (VENDOR) and 1% penicillin-streptomycin was added to the cells at 50 μL/well. Compounds were added into the 96-well plates using a JANUS automated liquid handling system (VENDOR). Compounds were initially diluted 1:50 into an intermediate 96-well plate containing SF-OptiMEM prior to transfer to the assay plate (25 μL/well). Each of the test compounds were tested in duplicate wells at final concentrations starting from 8 μM or 2 μM using ½ stepwise dilutions for a total of 8 points. Virus infection was performed by preparing a working stock of MPV-GFP1 at a multiplicity of infection (MOI) equal to 0.05/25 μL and aliquoting 25 μL of virus inoculum to the compound and positive control wells. SF-OptiMEM was added (25 μL/well) to the appropriate wells to serve as a virus-free negative control for the assay. The final DMSO concentration of all wells is 0.5%. Plates were incubated at 32° C., 5% CO2 for 5 days. After 5 days incubation, eGFP fluorescence intensity was measured at […] using a Spectramax i3X plate reader (VENDOR).
Percent viral inhibition was calculated using the following equation: y=[[…](XQ/XP)]×100 Where XQ is the fluorescence intensity measured in a well containing recombinant MPV-GFP1-infected, compound-treated cells and XP is the average fluorescence intensity measured in the wells containing untreated cells infected with recombinant virus. EC50 values were then calculated by non-linear regression using a four-parameter curve logistic equation. The curve fit model employed was XLFit Dose Response One Site Model 200: y=(A+(B/(1+((x/C)^D)))) Where A is the minimum y value, B is the maximum y value, C is the log EC50 value, and D is the slope factor. The EC50 for each compound is listed in Table 2 and EC50 ranges are as follows: A<0.2 μM; B≥0.2 μM.

Work on `COc1cc(C(=O)NC[C@](O)(c2cc3c(c(-c4ccc(F)cc4)n2)OC[C@]3(C)n2ccnc2)C(F)(F)F)ccc1OC1CC1` [Example 9, 4-cyclopropoxy-3-methoxy-N-((S)-3,3,3-trifluoro-2-((R)-7-(4-fluorophenyl)-3-(1H-imidazol-1-yl)-3-methyl-2,3-dihydrofuro[2,3-c]pyridin-5-yl)-2-hydroxypropyl)benzamide] yielded an EC50 [1] of less than 0.2 µM and an EC50 [2] greater than 0.2 µM.

`COc1cc(C(=O)NC[C@](O)(c2cc3c(c(-c4ccc(F)cc4)n2)OC[C@]3(C)n2cnnc2)C2CC2)cc2cccnc12` [Example 16, N-((S)-2-cyclopropyl-2-((R)-7-(4-fluorophenyl)-3-methyl-3-(4H-1,2,4-triazol-4-yl)-2,3-dihydrofuro[2,3-c]pyridin-5-yl)-2-hydroxyethyl)-8-methoxyquinoline-6-carboxamide] showed an EC50 [1] of less than 0.2 µM and an EC50 [2] greater than 0.2 µM.

Work on `COc1cc(C(=O)NC[C@](O)(c2cc3c(c(-c4ccc(F)cc4)n2)OC[C@]3(C)n2cnnc2)C(F)(F)F)ccc1OC1CC1` [Example 6, 4-cyclopropoxy-3-methoxy-N-((S)-3,3,3-trifluoro-2-((R)-7-(4-fluorophenyl)-3-methyl-3-(4H-1,2,4-triazol-4-yl)-2,3-dihydrofuro[2,3-c]pyridin-5-yl)-2-hydroxypropyl)benzamide] yielded an EC50 [1] of less than 0.2 µM and an EC50 [2] greater than 0.2 µM.

`COc1cc(C(=O)NC[C@](O)(c2cc3c(c(-c4ccc(F)cc4)n2)OC[C@]3(C)c2ncc[nH]2)C(F)(F)F)cc2cccnc12` [Example 20, 8-methoxy-N-((S)-3,3,3-trifluoro-2-((S)-7-(4-fluorophenyl)-3-(1H-imidazol-2-yl)-3-methyl-2,3-dihydrofuro[2,3-c]pyridin-5-yl)-2-hydroxypropyl)quinoline-6-carboxamide] showed an EC50 [1] of less than 0.2 µM and an EC50 [2] greater than 0.2 µM.

`COc1cc(C(=O)NC[C@](O)(c2cc3c(c(-c4ccc(F)cc4)n2)OC[C@]3(C)n2ccnn2)C(F)(F)F)ccc1OC1CC1` [Example 11, 4-cyclopropoxy-3-methoxy-N-((S)-3,3,3-trifluoro-2-((R)-7-(4-fluorophenyl)-3-methyl-3-(1H-1,2,3-triazol-1-yl)-2,3-dihydrofuro[2,3-c]pyridin-5-yl)-2-hydroxypropyl)benzamide] gave an EC50 [1] of less than 0.2 µM and an EC50 [2] greater than 0.2 µM.

For `COc1cc(C(=O)NC[C@](O)(c2cc3c(c(-c4ccc(F)cc4)n2)OC[C@]3(C)Cc2ncc[nH]2)C(F)(F)F)cc2cccnc12` [Example 23, N-((S)-2-((R)-3-((1H-imidazol-2-yl)methyl)-7-(4-fluorophenyl)-3-methyl-2,3-dihydrofuro[2,3-c]pyridin-5-yl)-3,3,3-trifluoro-2-hydroxypropyl)-8-methoxyquinoline-6-carboxamide], the EC50 [1] was less than 0.2 µM and the EC50 [2] was less than 0.2 µM.

In the case of `C[C@]1(c2nc3ccccc3[nH]2)COc2c1cc([C@@](O)(CNC(=O)c1cc(OC3CC3)c3ncccc3c1)C(F)(F)F)nc2-c1ccc(F)cc1` [Example 21, N-((S)-2-((S)-3-(1H-benzo[d]imidazol-2-yl)-7-(4-fluorophenyl)-3-methyl-2,3-dihydrofuro[2,3-c]pyridin-5-yl)-3,3,3-trifluoro-2-hydroxypropyl)-8-cyclopropoxyquinoline-6-carboxamide], the EC50 [1] is reported as less than 0.2 µM and the EC50 [2] is reported as greater than 0.2 µM.

From patent publication US11945824B2, “Heterocyclic compounds as anti-viral agents” (priority 2020, dated 2024)
